Laboratory results taken from publication PMC11048033, “Dual Anti-Inflammatory and Anticancer Activity of Novel 1,5-Diaryl Pyrazole Derivatives: Molecular Modeling, Synthesis, In Vitro Activity, and Dynamics Study” (Biomedicines, 2024).

Target: T1, human COX-1 (Homo sapiens, UniProt P23219)
T1 construct: purchased Cayman chemicals 701230
Assay: In vitro COX-1 enzymatic assay (Cayman COX (human) Inhibitor Screening Assay Kit)
Assay type: biochemical
Conditions: for COX-1 IC50: human COX-1
Description: The ability of the compounds to inhibit COX -2 (IC50 values, µM) was determined by using a “COX (human) Inhibitor Screening Assay Kit” procured from Cayman Chemicals (catalog number 701230). With a slight modification in the method as defined in the reference, the COX-2 inhibition assay was performed. Using the percent conversion of arachidonic acid (AA) to PGH2, the enzyme activity was calculated. By enzyme immunoassay PGF2α, which is produced from PGH2 by reduction with stannous chloride, is calculated. The test compounds’ stock solutions are prepared by dissolving in a minimum amount of DMSO. Human COX-2 (10 µL) in the presence of 10 µL of heme was suspended in 0.1M Tris-HCl buffer (pH 8.0) which contains 2 mM phenol and 5 mM EDTA. This was added to various concentrations of test compounds and, on incubating the solutions at 37 °C for 5 min, 10 µL of AA solution were added. Later, the COX reaction was stopped by adding 1M HCl (50 µL) after 2 min. The intensity of the yellow color which is produced as the product of the enzymatic reaction is determined spectrophotometrically. The percent inhibition was calculated by comparing the compound treated to different control incubations. Celecoxib is utilized as the standard for the assay. The determinations are done in triplicate and the IC50 (µM) was determined using the concentration–inhibition response curve.
During the initiation of the inflammatory process, the COX enzyme plays a vital role in the progression of inflammatory response. The inflammatory mediators that arise due to the action of COX lead to the chemoattraction of neutrophils, macrophages, eosinophils, etc. Due to the involvement of COX in inflammatory diseases, inhibitors of this enzyme can help in designing effective therapeutic agents. […] This was carried out with the help of a COX (human) inhibitor screening assay kit (Item no. 701230) from Cayman chemicals. […] A test substance concentration was considered to be inhibitive when it inhibited human COX-1 or COX-2 by 50%. The compound’s selectivity was measured by its selectivity index values, derived as IC50 (COX-1)/IC50 (COX-2).

T1 sequence (P23219 24-599): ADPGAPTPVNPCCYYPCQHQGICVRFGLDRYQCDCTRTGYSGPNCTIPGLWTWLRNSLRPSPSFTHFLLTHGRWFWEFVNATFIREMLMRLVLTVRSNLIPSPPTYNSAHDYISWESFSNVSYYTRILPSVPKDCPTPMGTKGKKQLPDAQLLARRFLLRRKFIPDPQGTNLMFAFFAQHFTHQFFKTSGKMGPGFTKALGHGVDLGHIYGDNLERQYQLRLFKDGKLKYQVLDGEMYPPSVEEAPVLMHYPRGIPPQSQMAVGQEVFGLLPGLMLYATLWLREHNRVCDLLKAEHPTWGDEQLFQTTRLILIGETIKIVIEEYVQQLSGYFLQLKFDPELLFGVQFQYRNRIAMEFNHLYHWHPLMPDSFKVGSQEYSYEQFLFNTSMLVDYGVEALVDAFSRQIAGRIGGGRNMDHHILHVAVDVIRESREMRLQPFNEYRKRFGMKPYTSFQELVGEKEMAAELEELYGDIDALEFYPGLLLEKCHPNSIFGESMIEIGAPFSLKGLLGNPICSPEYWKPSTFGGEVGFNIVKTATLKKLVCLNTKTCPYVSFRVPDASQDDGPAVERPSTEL

SMILES	% COX-1 Inhibition (0.781 μg/ml) [%]	% COX-1 Inhibition (1.562 μg/ml) [%]	% COX-1 Inhibition (3.125 μg/ml) [%]	% COX-1 Inhibition (6.25 μg/ml) [%]	% COX-1 Inhibition (12.5 μg/ml) [%]	% COX-1 Inhibition (25 μg/ml) [%]	% COX-1 Inhibition (50 μg/ml) [%]	% COX-1 Inhibition (100 μg/ml) [%]	% COX-1 Inhibition (250 μg/ml) [%]	COX-1 IC50 [µM]
NS(=O)(=O)c1ccc(-n2nc(C(=O)NN=Cc3cccc(Oc4ccccc4)c3)cc2-c2ccc(Cl)cc2)cc1 [Compound T3, 4-(5-(4-chlorophenyl)-3-(2-(3-phenoxybenzylidene) hydrazine-1-carbonyl)-1H-pyrazol-1-yl) benzenesulfonamide]	16.22 ± 0.61	24.62 ± 2.13	49.90 ± 2.32	61.14 ± 3.03	73.08 ± 1.76	77.09 ± 0.66	85.41 ± 0.12	87.94 ± 0.94	89.26 ± 0.71	4.655
Cc1cc(C=NNC(=O)c2cc(-c3ccc(Br)cc3)n(-c3ccc(S(N)(=O)=O)cc3)n2)cc(C)c1OCc1ccccc1 [Compound T5, 4-(3-(2-(4-(benzyloxy)-3,5-dimethylbenzylidene) hydrazine-1-carbonyl)-5-(4-bromophenyl)-1H-pyrazol-1-yl) benzenesulfonamide]	14.39 ± 2.17	21.90 ± 2.60	45.47 ± 1.94	57.14 ± 2.17	72.58 ± 3.09	76.66 ± 1.30	84.01 ± 1.77	88.49 ± 0.36	91.75 ± 2.76	5.596
